Patent US12522597B2, “Methods and compositions for modulating splicing” (Skyhawk Therapeutics, Inc., priority 2019, dated 2026)
Where two headings read alike, the source gives them in different places.

What was measured:
[1] = test system: Huntingtin (HTT) transcripts; experiment: Quantitative splicing assay (HTT), qPCR; type: cell-based; conditions: Homo sapiens, GM04724 (CAG 70/20) Huntington's disease patient lymphoblasts, 24 h
Summary of the method: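 GM04724 HD patient lymphoblasts (CAG 70/20) dosed 24 h with compound from 2.5 uM to 0.15 nM (0.1% DMSO). Lysates converted to cDNA; TaqMan qPCR measured compound-induced inclusion of a cryptic exon in HTT intron 49.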

[2] = test system: mHTT protein; experiment: mHTT protein assay (2B7-MW1, Mesoscale Discovery); type: cell-based, human; conditions: GM04724 (CAG 70/20) Huntington's disease patient lymphoblast cells, 48 hours, 2B7-MW1 MSD; read-out: HTT Potency - Protein EC50 mHTT (average)
Summary of the method: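 GM04724 Huntington's patient lymphoblasts (CAG 70/20) were treated for 48 h at 10 μM to 0.6 nM. mHTT was quantified by 2B7-MW1 MSD immunoassay, whose signal depends on polyQ expansion and HTT fragment size. Viability was run on a parallel plate by CellTiter-Glo.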

[3] = test system: MDR1-MDCK cell monolayers; experiment: MDCK-MDR1 permeability assay (BBB penetration potential); type: in vitro ADME; conditions: dog, MDCK-MDR1, 120 min, 5 μM, pH 7.4
Protocol: (§1) Each determination is performed in duplicate. […] Analytical conditions are outlined below.

[4] = test system: MDR1; experiment: as above; type: in vitro ADME; conditions: dog; for efflux ratio at 120 min, 5 μM: MDCK-MDR1, pH 7.4, MDCK-MDR1: Efflux; for Papp A→B at 120 min, 5 μM: MDCK-MDR1, pH 7.4, MDCK-MDR1: Papp A-B; for Papp B→A at 120 min, 5 μM: MDCK-MDR1, pH 7.4, MDCK-MDR1: Papp B-A
Protocol: as §1

[5] = qPCR HTTex49_50, read-out: HTT Potency - Splicing: E49-50 EC50 (average)
[6] = qPCR cryptic exon 49b inclusion, read-out: HTT Potency - Splicing: E49b EC50 (average)

Row | SMILES | EC50 [1, 5] [nM] | EC50 [1, 6] [nM] | EC50 [2] [nM] | MDCK-MDR1: % Recov A-B [3] [%] | MDCK-MDR1: % Recov B-A [3] [%] | efflux ratio at 120 min, 5 μM [4] | Papp A→B at 120 min, 5 μM [4] [×10⁻⁶ cm/s] | Papp B→A at 120 min, 5 μM [4] [×10⁻⁶ cm/s]
1 | Cn1ccc2cc(-c3ccc(O[C@H]4CC5CCC[C@@H](N5)[C@H]4F)nn3)c(O)cc2c1=O (single isomer, unassigned) [125-ENT1] | 101 to 500 | 51 to 100 | 51 to 100 | 101 | 91 | 23 | 3.35 | 76
2 | Cc1ccc(-c2ccc(-c3ccc(O[C@@H]4C[C@H]5CCC[C@H](N5)[C@@H]4F)nn3)c(O)c2)nn1 (single isomer, unassigned) [75-ENT1] | 501 to 10000 | 501 to 10000 | 501 to 10000 | 90 | 92 | 9 | 3.66 | 32.5
3 | CNC(=O)c1ccc2cc(-c3ccc(O[C@@H]4C[C@H]5CCC[C@H](N5)[C@@H]4F)nn3)c(O)cc2n1 (single isomer, unassigned) [136-ENT2] | 0.01 to 15 | 16 to 50 | 0.01 to 15 | 88 | 93 | 25 | 2.1 | 52.1
4 | Cn1cc(-c2ccc(-c3ccc(O[C@@H]4C[C@@H]5CCC[C@@H](N5)[C@H]4F)nn3)c(O)c2)cn1 (single isomer, unassigned) [121-ENT2] | 501 to 10000 | 501 to 10000 | 501 to 10000 | 75 | 90 | 3 | 13.5 | 45.9
5 | Cn1cc(-c2ccc(-c3ccc(O[C@@H]4C[C@H]5CCC[C@H](N5)[C@@H]4F)nn3)c(O)c2)cn1 (single isomer, unassigned) [1-ENT1] | 16 to 50 | 16 to 50 | 0.01 to 15 | 85 | 84 | 6 | 6.16 | 37.9
6 | Oc1cc(-c2nncs2)ccc1-c1ccc(O[C@H]2C[C@@H]3CCC[C@@H](N3)[C@H]2F)nn1 (single isomer, unassigned) [116-ENT2] | 101 to 500 | 101 to 500 | 16 to 50 | 90 | 95 | 5 | 11.3 | 61.4
7 | Oc1cc(-c2cn[nH]c2)ccc1-c1ccc(O[C@@H]2C[C@H]3CCC[C@H](N3)[C@@H]2F)nn1 (single isomer, unassigned) [40-ENT2] | 0.01 to 15 | 0.01 to 15 | 0.01 to 15 | 80 | 83 | 17 | 2.47 | 41.6
8 | Cn1ccc2cc(O)c(-c3ccc(O[C@H]4C[C@@H]5CC[C@@H](N5)[C@H]4F)nn3)cc2c1=O (single isomer, unassigned) [129-ENT1] | 101 to 500 | 101 to 500 | 16 to 50 | 89 | 91 | 12 | 4.29 | 52.8
9 | Cn1cc(-c2ccc(-c3ccc(O[C@H]4C[C@@H]5CCC[C@@H](N5)[C@H]4F)nn3)c(O)c2F)cn1 (single isomer, unassigned) [119-ENT2] | 16 to 50 | 16 to 50 | 51 to 100 | 59 | 64 | 3 | 9.17 | 29.4
10 | Cn1ccc(-c2cc(O)c(-c3ccc(O[C@@H]4C[C@H]5CCC[C@H](N5)[C@@H]4F)nn3)cc2F)cc1=O (single isomer, unassigned) [58-ENT1] | 16 to 50 | 16 to 50 | 0.01 to 15 | 97 | 103 | 49 | 0.92 | 45.1
11 | Cn1cc(-c2ccc(-c3ccc(O[C@@H]4C[C@H]5CCC[C@H](N5)[C@@H]4F)nn3)c(O)c2)oc1=O (single isomer, unassigned) [97-ENT1] | 16 to 50 | 16 to 50 | 0.01 to 15 | 83 | 78 | 14 | 3.67 | 50.4
12 | Cn1cc(-c2ccc(-c3ccc(O[C@@H]4C[C@@]5(C)CC[C@](C)(N5)[C@@H]4F)nn3)c(O)c2)cn1 (single isomer, unassigned) [150-ENT2] | 16 to 50 | 16 to 50 | 16 to 50 | 78 | 87 | 4 | 9.06 | 38.6
13 | Cn1cc(-c2ccc(-c3ccc(O[C@H]4C[C@@H]5CCC[C@@H](N5)[C@H]4F)nn3)c(O)c2)oc1=O (single isomer, unassigned) [97-ENT2] | 16 to 50 | 16 to 50 | 0.01 to 15 | 74 | 82 | 10 | 3.11 | 32
14 | Cn1ccc2cc(-c3ccc(O[C@H]4C[C@@H]5CC[C@@H](N5)[C@H]4F)nn3)c(O)cc2c1=O (single isomer, unassigned) [126-ENT1] | 101 to 500 | 51 to 100 | 16 to 50 | 100 | 95 | 14 | 3.5 | 48.3
15 | Cn1cc(-c2cc(O)c(-c3ccc(O[C@H]4C[C@@H]5CCC[C@@H](N5)[C@H]4F)nn3)cc2F)cn1 (single isomer, unassigned) [82-ENT2] | 0.01 to 15 | 0.01 to 15 | 0.01 to 15 | 35 | 72 | 4 | 3.26 | 12.8
16 | Cn1cc(-c2ccc(-c3ccc(O[C@H]4C[C@]5(C)CCC[C@@](C)(N5)[C@H]4F)nn3)c(O)c2)cn1 (single isomer, unassigned) [154-ENT1] | 16 to 50 | 0.01 to 15 | 16 to 50 | 73 | 87 | 4 | 9.33 | 37.7
17 | Oc1cc(-c2cn[nH]c2)ccc1-c1ccc(O[C@H]2C[C@@H]3CC[C@@H](N3)[C@@H]2F)nn1 (single isomer, unassigned) [43-ENT1] | 16 to 50 | 16 to 50 | 0.01 to 15 | 76 | 79 | 7 | 7.44 | 48.9
